Assay results as given in US20130303509A1, “NAMPT INHIBITORS” (AbbVie Inc., priority 2012, published 2013).

Tested on: PC3 cells
Test: NAMPT Cell Proliferation Assay
Assay type: cell-based
Conditions: Homo sapiens, PC-3, 120 h, 5 days incubation, cell viability by Cell Titer Glo
Outline: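 Seeded at 500 cells/well in RPMI with 10% heat-inactivated FBS and left to attach overnight at 37° C, 5% CO2. Compounds were added as 10-fold dilutions […] for 5 days, then viability was read by CellTiter-Glo. IC50s came from sigmoidal fits of percent inhibition.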

| IC50 [nM] | Structure (SMILES) |
| --- | --- |
| 73.6 | O=C(Nc1ccc(OC2CCN(C(=O)Cc3cc(F)cc(F)c3)CC2)cc1)C1CN(c2ccnnc2)C1 [Example 291, N-[4-({1-[(3,5-difluorophenyl)acetyl]piperidin-4-yl}oxy)phenyl]-1-(pyridazin-4-yl)azetidine-3-carboxamide] |
| 93.4 | O=C(Nc1ccc(OC2CCN(C(=O)c3cccc(OC(F)(F)F)c3)CC2)cc1)C1CN(c2ccnnc2)C1 [Example 292, 1-(pyridazin-4-yl)-N-[4-({1-[3-(trifluoromethoxy)benzoyl]piperidin-4-yl}oxy)phenyl]azetidine-3-carboxamide] |
| 72.3 | O=C(Nc1ccc(OC2CCN(C(=O)CC3CC3)CC2)cc1)C1CN(c2ccnnc2)C1 [Example 293, N-(4-{[1-(cyclopropylacetyl)piperidin-4-yl]oxy}phenyl)-1-(pyridazin-4-yl)azetidine-3-carboxamide] |
| 83.2 | CC(C)C(=O)N1CCC(Oc2ccc(NC(=O)C3CN(c4ccnnc4)C3)cc2)CC1 [Example 294, N-(4-{[1-(2-methylpropanoyl)piperidin-4-yl]oxy}phenyl)-1-(pyridazin-4-yl)azetidine-3-carboxamide] |
| 71.5 | O=C(Nc1ccc(OC2CCN(C(=O)c3cccc(Cl)c3)CC2)cc1)C1CN(c2ccnnc2)C1 [Example 295, N-(4-{[1-(3-chlorobenzoyl)piperidin-4-yl]oxy}phenyl)-1-(pyridazin-4-yl)azetidine-3-carboxamide] |
| 68.9 | O=C(Nc1ccc(OC2CCN(C(=O)c3ccccn3)CC2)cc1)C1CN(c2ccnnc2)C1 [Example 296, 1-(pyridazin-4-yl)-N-(4-{[1-(pyridin-2-ylcarbonyl)piperidin-4-yl]oxy}phenyl)azetidine-3-carboxamide] |
| 93.2 | O=C(Nc1ccc(OC2CCN(C(=O)c3ccc(Cl)cc3)CC2)cc1)C1CN(c2ccnnc2)C1 [Example 297, N-(4-{[1-(4-chlorobenzoyl)piperidin-4-yl]oxy}phenyl)-1-(pyridazin-4-yl)azetidine-3-carboxamide] |
| 97.9 | O=C(Nc1ccc(OC2CCN(C(=O)C3CCOC3)CC2)cc1)C1CN(c2ccnnc2)C1 (stereo not shown) [Example 298, 1-(pyridazin-4-yl)-N-(4-{[1-(tetrahydrofuran-3-ylcarbonyl)piperidin-4-yl]oxy}phenyl)azetidine-3-carboxamide] |
| 84.6 | O=C(Nc1ccc(OC2CCN(C(=O)c3cc(F)cc(F)c3)CC2)cc1)C1CN(c2ccnnc2)C1 [Example 299, N-(4-{[1-(3,5-difluorobenzoyl)piperidin-4-yl]oxy}phenyl)-1-(pyridazin-4-yl)azetidine-3-carboxamide] |
| 25.9 | CCC(C)(C)C(=O)N1CCC(Oc2ccc(NC(=O)C3CN(c4ccnnc4)C3)cc2)CC1 [Example 300, N-(4-{[1-(2,2-dimethylbutanoyl)piperidin-4-yl]oxy}phenyl)-1-(pyridazin-4-yl)azetidine-3-carboxamide] |
| 90.5 | O=C(Nc1ccc(OC2CCN(C(=O)C3CC3)CC2)cc1)C1CN(c2ccnnc2)C1 [Example 301, N-(4-{[1-(cyclopropylcarbonyl)piperidin-4-yl]oxy}phenyl)-1-(pyridazin-4-yl)azetidine-3-carboxamide] |

Continued, compound first:

| Structure (SMILES) | IC50 [nM] |
| --- | --- |
| O=C(Nc1ccc(OC2CCN(C(=O)Cc3ccc(F)cc3F)CC2)cc1)C1CN(c2ccnnc2)C1 [Example 277, N-[4-({1-[(2,4-difluorophenyl)acetyl]piperidin-4-yl}oxy)phenyl]-1-(pyridazin-4-yl)azetidine-3-carboxamide] | 73.1 |
| O=C(Nc1ccc(OC2CCN(C(=O)c3ccsc3)CC2)cc1)C1CN(c2ccnnc2)C1 [Example 278, 1-(pyridazin-4-yl)-N-(4-{[1-(thiophen-3-ylcarbonyl)piperidin-4-yl]oxy}phenyl)azetidine-3-carboxamide] | 79.1 |
| O=C(Nc1ccc(OC2CCN(C(=O)c3ccccc3Cl)CC2)cc1)C1CN(c2ccnnc2)C1 [Example 279, N-(4-{[1-(2-chlorobenzoyl)piperidin-4-yl]oxy}phenyl)-1-(pyridazin-4-yl)azetidine-3-carboxamide] | 9.72 |
| CC(C)(C)C(=O)N1CCC(Oc2ccc(NC(=O)C3CN(c4ccnnc4)C3)cc2)CC1 [Example 280, N-(4-{[1-(2,2-dimethylpropanoyl)piperidin-4-yl]oxy}phenyl)-1-(pyridazin-4-yl)azetidine-3-carboxamide] | 71.9 |
| CC(C)(C(=O)N1CCC(Oc2ccc(NC(=O)C3CN(c4ccnnc4)C3)cc2)CC1)c1ccccc1 [Example 281, N-(4-{[1-(2-methyl-2-phenylpropanoyl)piperidin-4-yl]oxy}phenyl)-1-(pyridazin-4-yl)azetidine-3-carboxamide] | 16.9 |
| CC(=O)N1CCC(Oc2ccc(NC(=O)C3CN(c4ccnnc4)C3)cc2)CC1 [Example 282, N-{4-[(1-acetylpiperidin-4-yl)oxy]phenyl}-1-(pyridazin-4-yl)azetidine-3-carboxamide] | 629 |
| O=C(Nc1ccc(OC2CCN(C(=O)c3nccs3)CC2)cc1)C1CN(c2ccnnc2)C1 [Example 283, 1-(pyridazin-4-yl)-N-(4-{[1-(1,3-thiazol-2-ylcarbonyl)piperidin-4-yl]oxy}phenyl)azetidine-3-carboxamide] | 72.5 |
| O=C(Nc1ccc(OC2CCN(C(=O)c3ccc(F)cc3F)CC2)cc1)C1CN(c2ccnnc2)C1 [Example 284, N-(4-{[1-(2,4-difluorobenzoyl)piperidin-4-yl]oxy}phenyl)-1-(pyridazin-4-yl)azetidine-3-carboxamide] | 66.6 |
| O=C(Nc1ccc(OC2CCN(C(=O)c3cccc(C(F)(F)F)c3)CC2)cc1)C1CN(c2ccnnc2)C1 [Example 285, 1-(pyridazin-4-yl)-N-[4-({1-[3-(trifluoromethyl)benzoyl]piperidin-4-yl}oxy)phenyl]azetidine-3-carboxamide] | 69.2 |
| O=C(Nc1ccc(OC2CCN(C(=O)c3cccc(F)c3)CC2)cc1)C1CN(c2ccnnc2)C1 [Example 286, N-(4-{[1-(3-fluorobenzoyl)piperidin-4-yl]oxy}phenyl)-1-(pyridazin-4-yl)azetidine-3-carboxamide] | 74 |
| O=C(Nc1ccc(OC2CCN(C(=O)c3ccc(C(F)(F)F)cc3)CC2)cc1)C1CN(c2ccnnc2)C1 [Example 287, 1-(pyridazin-4-yl)-N-[4-({1-[4-(trifluoromethyl)benzoyl]piperidin-4-yl}oxy)phenyl]azetidine-3-carboxamide] | 121 |
| O=C(Nc1ccc(OC2CCN(C(=O)Cc3cccc(F)c3)CC2)cc1)C1CN(c2ccnnc2)C1 [Example 288, N-[4-({1-[(3-fluorophenyl)acetyl]piperidin-4-yl}oxy)phenyl]-1-(pyridazin-4-yl)azetidine-3-carboxamide] | 24.8 |
| O=C(Nc1ccc(OC2CCN(C(=O)c3ccccc3F)CC2)cc1)C1CN(c2ccnnc2)C1 [Example 289, N-(4-{[1-(2-fluorobenzoyl)piperidin-4-yl]oxy}phenyl)-1-(pyridazin-4-yl)azetidine-3-carboxamide] | 53.2 |
| O=C(Nc1ccc(OC2CCN(C(=O)c3ccc(OC(F)(F)F)cc3)CC2)cc1)C1CN(c2ccnnc2)C1 [Example 290, 1-(pyridazin-4-yl)-N-[4-({1-[4-(trifluoromethoxy)benzoyl]piperidin-4-yl}oxy)phenyl]azetidine-3-carboxamide] | 80.7 |
